Test results reported in patent US20250034216A1, “STEREOSELECTIVE COVALENT LIGANDS FOR ONCOGENIC AND IMMUNOLOGICAL PROTEINS” (The Scripps Research Institute, priority 2021, published 2025).

Key:
Assay in all cases: IA-DTB cysteine engagement
Format in all cases: binding
Settings in all cases: 22Rv1 cells, 20 μM probe, 1 h, relative to DMSO
[1] = molecular target: T1, TRPM4_C759 (Homo sapiens, UniProt Q8TD43)
T1 construct: endogenous in cells; host or cells: 22Rv1
In short: (§1)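 Competitive chemoproteomics: residual cysteine reactivity toward IA-DTB in lysates from probe-treated cells was quantified by TMT reporter ions relative to DMSO-treated controls. Replicates sharing cell line, probe, concentration and duration were averaged.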

[2] = molecular target: T2, ACTL8_C197 (Homo sapiens, UniProt Q9H568)
T2 construct: endogenous in cells; host or cells: 22Rv1
T2 sequence (Q9H568 1-366): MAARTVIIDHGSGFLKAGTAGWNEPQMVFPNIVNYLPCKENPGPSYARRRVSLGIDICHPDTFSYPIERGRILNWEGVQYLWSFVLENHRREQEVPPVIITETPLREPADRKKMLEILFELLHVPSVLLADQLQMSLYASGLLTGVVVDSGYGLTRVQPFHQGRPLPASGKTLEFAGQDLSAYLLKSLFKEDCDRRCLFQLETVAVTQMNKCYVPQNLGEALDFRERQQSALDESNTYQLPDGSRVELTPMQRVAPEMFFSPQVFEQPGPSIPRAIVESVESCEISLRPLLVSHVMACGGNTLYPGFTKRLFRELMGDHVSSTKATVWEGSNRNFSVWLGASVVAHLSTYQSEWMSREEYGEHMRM
In short: as §1

[3] = molecular target: T3, ABCB8_C454 (Homo sapiens, UniProt Q9NUT2)
T3 construct: endogenous in cells; host or cells: 22Rv1
T3 sequence (Q9NUT2 26-735): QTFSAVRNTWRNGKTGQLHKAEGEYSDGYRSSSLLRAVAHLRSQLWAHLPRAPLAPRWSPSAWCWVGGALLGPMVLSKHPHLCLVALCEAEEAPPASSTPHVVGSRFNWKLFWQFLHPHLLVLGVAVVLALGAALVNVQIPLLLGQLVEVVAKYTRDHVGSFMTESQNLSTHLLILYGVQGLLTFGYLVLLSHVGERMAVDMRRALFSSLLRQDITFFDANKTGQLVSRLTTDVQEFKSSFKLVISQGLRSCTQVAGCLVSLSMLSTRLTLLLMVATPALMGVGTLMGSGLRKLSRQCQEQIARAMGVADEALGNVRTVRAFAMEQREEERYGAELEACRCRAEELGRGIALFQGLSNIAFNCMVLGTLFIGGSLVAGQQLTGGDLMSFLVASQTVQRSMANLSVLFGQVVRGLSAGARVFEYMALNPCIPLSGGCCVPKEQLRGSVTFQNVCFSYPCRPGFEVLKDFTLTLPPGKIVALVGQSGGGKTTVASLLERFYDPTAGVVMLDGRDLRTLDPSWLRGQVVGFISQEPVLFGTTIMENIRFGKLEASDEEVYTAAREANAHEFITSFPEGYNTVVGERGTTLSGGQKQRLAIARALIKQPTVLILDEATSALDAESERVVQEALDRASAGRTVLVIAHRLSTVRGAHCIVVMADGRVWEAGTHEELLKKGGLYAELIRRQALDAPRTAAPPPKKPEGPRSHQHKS
In short: as §1

[4] = molecular target: T4, MAGI1_C526 (Homo sapiens, UniProt Q96QZ7)
T4 construct: endogenous in cells; host or cells: 22Rv1
In short: as §1

T1 sequence (Q8TD43 whole entry): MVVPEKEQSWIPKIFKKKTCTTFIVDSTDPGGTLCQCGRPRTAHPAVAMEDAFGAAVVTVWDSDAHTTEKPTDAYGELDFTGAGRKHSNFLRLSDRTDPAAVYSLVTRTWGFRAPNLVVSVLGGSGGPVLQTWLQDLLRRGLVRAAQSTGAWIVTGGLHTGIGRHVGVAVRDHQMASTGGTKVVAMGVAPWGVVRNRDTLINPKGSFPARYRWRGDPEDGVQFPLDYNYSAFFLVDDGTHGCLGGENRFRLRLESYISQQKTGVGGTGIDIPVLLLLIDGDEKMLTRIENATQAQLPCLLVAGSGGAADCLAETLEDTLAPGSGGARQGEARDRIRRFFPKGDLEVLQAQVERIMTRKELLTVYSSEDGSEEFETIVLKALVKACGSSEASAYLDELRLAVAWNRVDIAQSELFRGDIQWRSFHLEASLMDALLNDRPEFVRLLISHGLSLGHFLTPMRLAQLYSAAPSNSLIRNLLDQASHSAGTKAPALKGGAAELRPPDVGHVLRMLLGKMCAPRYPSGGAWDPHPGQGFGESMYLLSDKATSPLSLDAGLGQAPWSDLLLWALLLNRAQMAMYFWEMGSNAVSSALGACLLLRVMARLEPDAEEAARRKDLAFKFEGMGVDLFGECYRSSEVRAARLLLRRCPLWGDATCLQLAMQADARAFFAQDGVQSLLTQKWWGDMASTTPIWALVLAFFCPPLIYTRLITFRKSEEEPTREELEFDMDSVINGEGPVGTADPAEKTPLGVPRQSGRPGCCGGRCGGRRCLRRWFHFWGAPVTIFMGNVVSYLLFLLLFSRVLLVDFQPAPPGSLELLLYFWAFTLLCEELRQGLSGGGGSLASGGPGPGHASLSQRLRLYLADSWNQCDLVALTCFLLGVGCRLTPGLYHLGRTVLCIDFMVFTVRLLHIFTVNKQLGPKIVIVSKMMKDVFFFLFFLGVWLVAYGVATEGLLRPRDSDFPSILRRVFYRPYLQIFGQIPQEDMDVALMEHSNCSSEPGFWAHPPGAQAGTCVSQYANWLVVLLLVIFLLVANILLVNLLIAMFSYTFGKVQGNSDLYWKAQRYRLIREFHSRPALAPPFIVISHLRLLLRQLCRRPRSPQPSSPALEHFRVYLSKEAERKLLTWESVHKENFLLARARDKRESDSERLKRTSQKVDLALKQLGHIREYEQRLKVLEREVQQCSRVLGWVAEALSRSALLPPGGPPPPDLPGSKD
T4 sequence (Q96QZ7 whole entry): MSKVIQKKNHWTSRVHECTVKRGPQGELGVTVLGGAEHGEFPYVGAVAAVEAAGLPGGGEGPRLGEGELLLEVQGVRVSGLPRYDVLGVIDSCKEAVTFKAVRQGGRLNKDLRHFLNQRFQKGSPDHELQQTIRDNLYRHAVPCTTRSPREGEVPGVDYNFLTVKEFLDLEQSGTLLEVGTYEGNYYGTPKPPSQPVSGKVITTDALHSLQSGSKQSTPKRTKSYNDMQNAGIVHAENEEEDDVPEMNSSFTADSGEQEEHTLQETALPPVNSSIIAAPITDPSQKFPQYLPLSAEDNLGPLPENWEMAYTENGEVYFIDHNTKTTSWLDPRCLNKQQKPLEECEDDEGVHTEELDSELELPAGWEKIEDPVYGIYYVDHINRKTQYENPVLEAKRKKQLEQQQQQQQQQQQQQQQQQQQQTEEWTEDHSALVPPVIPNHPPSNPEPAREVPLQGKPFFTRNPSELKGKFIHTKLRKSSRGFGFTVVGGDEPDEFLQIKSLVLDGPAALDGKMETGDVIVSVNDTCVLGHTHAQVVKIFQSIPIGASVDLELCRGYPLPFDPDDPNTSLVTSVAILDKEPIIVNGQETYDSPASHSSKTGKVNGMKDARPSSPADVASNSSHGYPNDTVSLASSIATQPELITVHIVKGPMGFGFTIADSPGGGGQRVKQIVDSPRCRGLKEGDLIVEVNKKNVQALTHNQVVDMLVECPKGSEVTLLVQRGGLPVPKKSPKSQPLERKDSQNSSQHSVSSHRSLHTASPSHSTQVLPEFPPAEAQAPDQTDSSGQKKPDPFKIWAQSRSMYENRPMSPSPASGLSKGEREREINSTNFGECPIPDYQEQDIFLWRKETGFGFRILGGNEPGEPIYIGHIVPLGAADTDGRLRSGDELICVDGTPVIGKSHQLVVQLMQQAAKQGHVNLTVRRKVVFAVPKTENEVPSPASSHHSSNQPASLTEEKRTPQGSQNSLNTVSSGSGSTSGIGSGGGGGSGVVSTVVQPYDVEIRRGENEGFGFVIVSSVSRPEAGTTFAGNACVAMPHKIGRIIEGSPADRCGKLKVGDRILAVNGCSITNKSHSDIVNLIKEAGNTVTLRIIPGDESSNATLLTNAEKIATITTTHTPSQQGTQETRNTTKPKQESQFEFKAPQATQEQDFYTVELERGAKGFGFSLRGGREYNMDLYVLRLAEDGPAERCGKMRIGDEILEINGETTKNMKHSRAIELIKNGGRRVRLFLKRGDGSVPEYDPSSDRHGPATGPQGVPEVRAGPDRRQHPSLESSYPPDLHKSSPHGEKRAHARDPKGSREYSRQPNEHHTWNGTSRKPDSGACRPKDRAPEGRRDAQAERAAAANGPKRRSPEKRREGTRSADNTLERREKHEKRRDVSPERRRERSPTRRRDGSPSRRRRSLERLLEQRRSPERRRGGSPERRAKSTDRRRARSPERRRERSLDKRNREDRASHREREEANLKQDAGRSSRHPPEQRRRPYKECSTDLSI

In the case of `C=CC(=O)N1C[C@@H](c2ccc(Br)cc2)[C@H]1C(=O)Nc1cccc2cccnc12` [MY-1A, (2S,3R)-1-acryloyl-3-(4-bromophenyl)-N-(quinolin-8-yl)azetidine-2-carboxamide], the “% engagement TRPM4_C759” value [1] is reported as 69.75%, the “% engagement ACTL8_C197” value [2] is reported as 14% and the “% engagement ABCB8_C454” value [3] is reported as −1.25%. For the same compound, the “% engagement MAGI1_C526” value [4] was 65%.

For `C=CC(=O)N1C[C@H](c2ccc(Br)cc2)[C@@H]1C(=O)Nc1cccc2cccnc12` [MY-1B, (2R,3S)-1-acryloyl-3-(4-bromophenyl)-N-(quinolin-8-yl)azetidine-2-carboxamide], the “% engagement TRPM4_C759” value [1] was 48.75%, the “% engagement ACTL8_C197” value [2] was 66.25% and the “% engagement ABCB8_C454” value [3] was 14%. The “% engagement MAGI1_C526” value [4] was 32%.

With `C=CC(=O)N1C[C@H](c2ccc(Br)cc2)[C@H]1C(=O)Nc1cccc2cccnc12` [MY-3A, (2S,3S)-1-acryloyl-3-(4-bromophenyl)-N-(quinolin-8-yl)azetidine-2-carboxamide] the “% engagement TRPM4_C759” value [1] was 50.25%, the “% engagement ACTL8_C197” value [2] was 3.25% and the “% engagement ABCB8_C454” value [3] was 24%. The “% engagement MAGI1_C526” value [4] was 2.5%.

With `C=CC(=O)N1C[C@H](c2ccc(Br)cc2)[C@H]1C(=O)Nc1cccc2cccnc12` [MY-3B, (2S,3S)-1-acryloyl-3-(4-bromophenyl)-N-(quinolin-8-yl)azetidine-2-carboxamide] the “% engagement TRPM4_C759” value [1] was 76.25%, the “% engagement ACTL8_C197” value [2] was 36.75% and the “% engagement ABCB8_C454” value [3] was 67%. For the same compound, the “% engagement MAGI1_C526” value [4] was 100%.
